The record followed here is patent US20060182728A1, “Methods for treating pervasive development disorders” (priority 1999, published 2006).

The test system of assay [1] is children diagnosed with ADHD. Briefly: Required Ritalin level of ADHD children administered secretin. The format is in vivo, human. The note with it: each of 5 ADHD children with pathologic FC level; 6 months post-secretin vs pre-secretin. As for the experimental part: A preferred secretin infusion process includes the initial step of prepping an arm of the candidate child with an IV injection of saline. A test dose of 1 U of Secretin-Ferring is then administered to the child. Approximately one minute after infusion, the child is examined for signs of allergic reaction including rash, increased heart rate, and increase of blood pressure. […] Subsequently, each child receives a 1 U/kg of body weight infusion of Secretin-Ferring approximately every 6 weeks for 9 months. It is to be understood that any commercially available form of secretin may be used.
In this experiment, the fecal chymotrypsin levels of 34 children diagnosed with ADHD were obtained using the fecal chymotrypsin test described above in Experiment 1, the levels of which are illustrated in FIG. 16. As shown, 32 children out of 34 children tested were determined to have sub-normal fecal chymotrypsin levels.
To determine the effect of secretin administration on ADHD children, 5 of the 24 children having a pathologic fecal chymotrypsin level were administered secretin using the secretin infusion process described above.

In assay [2] the test system is children diagnosed as having autism. Briefly: Fecal Chymotrypsin Test after secretin infusion in autistic children. The format is in vivo, human. Here is the method:
In this experiment, 16 children diagnosed as having autism were administered the following Fecal Chymotrypsin Test in accordance with an embodiment of the invention. First, approximately 2 grams of stool were collected from each child and placed in a sterile container (although it is to be understood that any quantity of stool may be collected, as 2 grams of stool is not a required amount). Each stool sample was then analyzed using, e.g., an enzymatic photospectrometry analysis as is known by those skilled in the art, to determine the level of fecal chymotrypsin in the stool. Although the enzymatic photospectrophotometry process is preferred, any suitable conventional method may be used for measuring the fecal chymotrypsin levels. This measured chymotrypsin levels of the 16 autistic children are illustrated in FIG. 13.
After determining the chymotrypsin levels of the stools, each of these levels were compared with threshold chymotrypsin levels to determine if the child was likely to benefit from secretin administration. By way of example, with the fecal chymotrypsin tests of the stool samples being performed at 30EC, normal levels of chymotrypsin are deemed to lie above 8.4 U/gram, whereas pathologically abnormal levels are deemed to lie below 4.2 U/gram. In addition, chymotrypsin levels between 8.4 U/gram and 4.2 U/gram are considered equivocal, and further testing of the individual's fecal chymotrypsin levels over a period of time should be performed.
For each of the 16 autistic children tested, a preferred secretin infusion process according to the present invention was performed involving the administering of 1 U/kg of body weight of Secretin-Ferring for a period of nine months at intervals of approximately 6 weeks. […]
In this experiment, 37 autistic children with abnormal fecal chymotrypsin levels were administered secretin over the course of 6 months using the secretin infusion process described above. Their fecal chymotrypsin (FC) levels were measured weekly using the fecal chymotrypsin test described above.

The mark [3] stands for this setting: 6 Months Post-Secretin Administration, of 37 children, 0 pre-secretin.

Consider secretin, for which the “level of Ritalin (mg) needed to remain at the same functional level” value in assay [1] is reported as “significant changes”. For the same substance, in assay [2] (setting [3]), the “# Autistic Children w/Equivocal FC levels” value is recorded as 2 and the “# Autistic Children w/normal FC levels” value was determined as 34. Further, the “fecal chymotrypsin level post-secretin administration compared with pre-secretin” value in assay [2] (each of 16 autistic children, approximately one week after first secretin infusion, 1 U/kg IV) was “increased”.
